# Reference: patent US20060035966A1, “Irreversible selective androgen receptor modulators and methods of use thereof” (priority 2002, published 2006)
# Read-outs that look alike come from different tables or passages of the source.
# Experiments:
# DU 145 cells = assay: Induction of apoptosis, DU 145; format: cell-based, human
# Experimental: (§1) The ability of DJ 1-31, DJ 1-29, S-NTBA and Compound V to induce apoptosis in different prostate cancer cell lines (DU 145, PC-3, TSU, PPC-1 and LNCaP), in other cancer cell lines (TCCSUP, HT-29 and MCF-7) and in a control cell line (CV-1) was determined and the results are shown in Table 6.
# CV-1 control cell line = assay: Cytotoxicity, SRB assay, CV-1 control; format: cell-based, African green monkey
# Experimental: (§2) The SRB Assay was used to determine cell number during cytotoxocity experiments. The following protocol was used: • 1. Cells were detached with 0.25% trypsin. • 2. Experimental cultures were cultured in 96-well microtiter plates (200 uL growth medium per well; 1,000-200,000 cells per well). • 3. Cultures were fixed with 50 uL 50% TCA (4° C.). (see cell fixation protocol for details). • 4. Fixed cells were stained with 50 uL 0.4% (wt/vol) SRB in 1% acetic acid for 10 minutes. • 5. SRB was removed and the cultures were quickly* rinsed 5 times with 1% acetic acid to remove unbound dye.** • 6. Cultures were air-dried overnight until there is no visible moisture. • 7. The cellular protein-bound SRB was dissolved with 200 uL unbuffered Tris base (10 mM, pH 10.5) for 30 minutes on a rocking platform shaker. • 8. Absorbance was read at 540 nm. • * quickly performing rinsing process is to prevent desorption of protein-bound SRB • ** completely remove residual wash solution by sharply flicking plates over sink. Fixation of Cells Attached to the Plastic Substratum
# (§3) The following protocol was used for fixing cells: • a. 50 uL of 50% TCA (4° C.) were gently layered on the top of growth medium in each well to make a final TCA concentration of 10%. • b. Cultures were incubated at 4° C. for 1 hour. • c. Cultures were washed 5 times with tap water to remove TCA, growth medium, low-molecular-weight metabolites, and serum protein. • d. Plates were air-dried until there was no visible moisture.
# [1] = system: TCCSUP bladder cancer cell line; assay: Cytotoxicity, SRB assay, TCCSUP; format: cell-based, human; conditions: read-out: IC50 TCCSUP
# Experimental: as §2, with “Cells were detached with 0.25% trypsin. • 2.” left out, “The cellular protein-bound SRB was dissolved with 200 uL unbuffered Tris base (10 mM, pH 10.5) for 30 minutes on a rocking platform shaker. • 8.” left out
# as §3
# [2] = system: PPC-1 prostate cancer cell line; assay: Cytotoxicity, SRB assay, PPC-1; format: cell-based, human
# Experimental: as §2, with “Cells were detached with 0.25% trypsin. • 2.” left out, “The cellular protein-bound SRB was dissolved with 200 uL unbuffered Tris base (10 mM, pH 10.5) for 30 minutes on a rocking platform shaker. • 8.” left out
# as §3
# TCCSUP cells = assay: Induction of apoptosis, TCCSUP; format: cell-based, human
# Experimental: as §1
# HT-29 cells = assay: Induction of apoptosis, HT-29; format: cell-based, human
# Experimental: as §1
# PC-3 cells = assay: Induction of apoptosis, PC-3; format: cell-based, human
# Experimental: as §1
# LNCaP cells = assay: Induction of apoptosis, LNCaP; format: cell-based, human
# Experimental: as §1
# [3] = system: PC-3 bone metastatic prostate cancer cell line; assay: Cytotoxicity, SRB assay, PC-3; format: cell-based, human
# Experimental: PPC-1, LNCaP, TSU, PC-3, and DU145 were grown in PRMI-1640 medium containing 2 mM L-glutamine supplemented with 10% fetal bovine serum (FBS). Cells were maintained in a 5% CO2/95% air humidified atomosphere at 37° C.
# as §2, §3
# [4] = system: AR-expressing LNCaP prostate cancer cell line; assay: Cytotoxicity, SRB assay, LNCaP; format: cell-based, human
# Experimental: as §2, with “Cells were detached with 0.25% trypsin. • 2.” left out, “The cellular protein-bound SRB was dissolved with 200 uL unbuffered Tris base (10 mM, pH 10.5) for 30 minutes on a rocking platform shaker. • 8.” left out
# as §3
# [5] = system: DU 145 prostate cancer cell line; assay: Cytotoxicity, SRB assay, DU 145; format: cell-based, human
# Experimental: as §2, with “Cells were detached with 0.25% trypsin. • 2.” left out, “The cellular protein-bound SRB was dissolved with 200 uL unbuffered Tris base (10 mM, pH 10.5) for 30 minutes on a rocking platform shaker. • 8.” left out
# as §3
# PPC-1 cells = assay: Induction of apoptosis, PPC-1; format: cell-based, human
# Experimental: as §1
# CV-1 cells = assay: Induction of apoptosis, CV-1; format: cell-based, African green monkey
# Experimental: as §1
# [6] = system: TSU prostate cancer cell line; assay: Cytotoxicity, SRB assay, TSU; format: cell-based, human; conditions: read-out: IC50 TSU
# Experimental: as §2, with “Cells were detached with 0.25% trypsin. • 2.” left out, “The cellular protein-bound SRB was dissolved with 200 uL unbuffered Tris base (10 mM, pH 10.5) for 30 minutes on a rocking platform shaker. • 8.” left out
# as §3
# MCF-7 cells = assay: Induction of apoptosis, MCF-7; format: cell-based
# Experimental: as §1
# TSU cells = assay: Induction of apoptosis, TSU; format: cell-based, human
# Experimental: as §1
# [7] = system: HT-29 colorectal adenocarcinoma cell line; assay: Cytotoxicity, SRB assay, HT-29; format: cell-based, human
# Experimental: as §2, with “Cells were detached with 0.25% trypsin. • 2.” left out, “The cellular protein-bound SRB was dissolved with 200 uL unbuffered Tris base (10 mM, pH 10.5) for 30 minutes on a rocking platform shaker. • 8.” left out
# as §3
# [8] = Homo sapiens, LNCaP, 24 h, read-out: IC50 LNCaP 24 hr treatment
# [9] = Homo sapiens, LNCaP, 144 h, read-out: IC50 LNCaP 6 day treatment
# [10] = Homo sapiens, LNCaP, read-out: IC50 LNCaP
# [11] = Chlorocebus sabaeus, 24 h, read-out: IC50 CV-1 24 hr treatment
# [12] = Chlorocebus sabaeus, 96 h, read-out: IC50 CV-1 4 day treatment
# [13] = Chlorocebus sabaeus, read-out: IC50 CV-1 (Control)
# [14] = Homo sapiens, PPC-1, read-out: IC50 PPC-1
# [15] = Homo sapiens, 24 h, read-out: IC50 PC-3 24 hr treatment
# [16] = Homo sapiens, 96 h, read-out: IC50 PC-3 4 day treatment
# [17] = Homo sapiens, read-out: IC50 PC-3
# [18] = Homo sapiens, DU-145, read-out: IC50 DU145
# [19] = Homo sapiens, HT-29, read-out: IC50 HT-29
structure (smiles),measurement,setting,value
C[C@@](O)(CBr)C(=O)Nc1ccc([N+](=O)[O-])c(C(F)(F)F)c1 [S-NTBA],Enrichment factor DU 145,DU 145 cells,1.929
same,IC50,"CV-1 control cell line; Chlorocebus sabaeus, 24 h, drug incubation time 1 day, Example 4, read-out: IC50 CV-1",> 50 µM
same,IC50,"CV-1 control cell line; Chlorocebus sabaeus, 96 h, 4 day treatment, Example 2, read-out: IC50 CV-1 4 day treatment",4.9 µM
same,IC50,"CV-1 control cell line; Chlorocebus sabaeus, 96 h, drug incubation time 4 day, Example 4, read-out: IC50 CV-1",38.6 ± 3.6 µM
same,IC50,"CV-1 control cell line; Chlorocebus sabaeus, 24 hr treatment, Example 2, read-out: IC50 CV-1 24 hr treatment",48.2 ± 10.9 µM
same,IC50,"CV-1 control cell line; Chlorocebus sabaeus, Table 2B, Example 1, read-out: IC50 CV-1 (Control)",12.7 ± 0.3 µM
same,IC50,"[1]; Homo sapiens, TCC-SUP, Table 2B, Example 1",2.4 ± 0.3 µM
same,IC50,"[2]; Homo sapiens, PPC-1, Table 2A, Example 1, read-out: IC50 PPC-1",2.2 ± 0.2 µM
same,Enrichment factor TCCSUP,TCCSUP cells,0.118
same,Enrichment factor HT-29,HT-29 cells,1.538
same,Enrichment factor PC-3,PC-3 cells,0.750
same,Enrichment factor LNCaP,LNCaP cells,0.660
same,IC50,"[3]; Homo sapiens, 96 h, 4 day treatment, Example 3, read-out: IC50 PC-3 4 day treatment",18000 nM
same,IC50,"[3]; Homo sapiens, 24 hr treatment, Example 3, read-out: IC50 PC-3 24 hr treatment",> 50000 nM
same,IC50,"[3]; Homo sapiens, Table 2A, Example 1, read-out: IC50 PC-3",3100 ± 600 nM
same,IC50,[4]; [8],4.4 µM
same,IC50,[4]; [9],2.1 µM
same,IC50,[4]; [10],1.4 ± 0.2 µM
same,IC50,"[5]; Homo sapiens, DU-145, Table 2A, Example 1, read-out: IC50 DU145",4.7 ± 0.3 µM
same,Enrichment factor PPC-1,PPC-1 cells,0.697
same,Enrichment factor CV-1,CV-1 cells,0.393
same,IC50,"[6]; Homo sapiens, Table 2A, Example 1",3.5 ± 0.2 µM
same,Enrichment factor MCF-7,MCF-7 cells,2.012
same,Enrichment factor TSU,TSU cells,0.705
same,IC50,"[7]; Homo sapiens, HT-29, Table 2B, Example 1, read-out: IC50 HT-29",6.3 ± 0.3 µM
C[C@](O)(CSc1ccc(NC(=O)CCl)cc1)C(=O)Nc1ccc(C#N)c(C(F)(F)F)c1 [R-CTF-T-CA-1],IC50,CV-1 control cell line; [11],6.2 ± 0.2 µM
same,IC50,CV-1 control cell line; [12],4.2 µM
same,IC50,CV-1 control cell line; [13],2.7 ± 1 µM
same,IC50,"[1]; Homo sapiens, TCC-SUP",1.8 ± 0.2 µM
same,IC50,[2]; [14],2.5 ± 0.1 µM
same,IC50,[3]; [15],5800 nM
same,IC50,[3]; [16],4300 nM
same,IC50,[3]; [17],6100 ± 500 nM
same,IC50,[4]; [8],3.5 µM
same,IC50,[4]; [9],1.7 µM
same,IC50,[4]; [10],1.1 ± 0.2 µM
same,IC50,[5]; [18],2.6 ± 0.1 µM
same,IC50,[6]; Homo sapiens,1.5 ± 0.2 µM
same,IC50,[7]; [19],6.4 ± 0.5 µM
C[C@](O)(CSc1ccc(NC(=O)CBr)cc1)C(=O)Nc1ccc(C#N)c(C(F)(F)F)c1 [R-CTF-T-BA-1],IC50,CV-1 control cell line; [11],23.4 ± 1.6 µM
same,IC50,CV-1 control cell line; [12],13.9 µM
same,IC50,CV-1 control cell line; [13],10.8 ± 0.5 µM
same,IC50,"[1]; Homo sapiens, TCC-SUP",3.8 ± 0.5 µM
same,IC50,[2]; [14],1.3 ± 0.1 µM
same,IC50,[3]; [15],22100 nM
same,IC50,[3]; [16],16800 nM
same,IC50,[3]; [17],2600 ± 100 nM
same,IC50,[4]; [8],11.2 µM
same,IC50,[4]; [9],8.1 µM
same,IC50,[4]; [10],3.2 ± 0.4 µM
same,IC50,[5]; [18],3.1 ± 0.1 µM
same,IC50,[6]; Homo sapiens,0.6 ± 0.1 µM
same,IC50,[7]; [19],1.6 ± 0.03 µM
"O=c1[nH]cc(F)c(=O)[nH]1 [Compound 5-FU, reference compound]",IC50,"CV-1 control cell line; Table 2B, Example 1, read-out: IC50 CV-1 (Control)",5.4 ± 0.3 µM
same,IC50,"[1]; Table 2B, Example 1",3.6 ± 0.7 µM
same,IC50,"[2]; Table 2A, Example 1, read-out: IC50 PPC-1",5.1 ± 0.5 µM
same,IC50,"[3]; 24 hr treatment, Example 3, read-out: IC50 PC-3 24 hr treatment",20000 to 50000 nM
same,IC50,"[3]; 4 day treatment, Example 3, read-out: IC50 PC-3 4 day treatment",10900 nM
same,IC50,"[3]; Table 2A, Example 1, read-out: IC50 PC-3",10500 ± 600 nM
same,IC50,"[4]; Table 2A, Example 1, read-out: IC50 LNCaP",4.1 ± 0.6 µM
same,IC50,"[5]; Table 2A, Example 1, read-out: IC50 DU145",4.5 ± 0.3 µM
same,IC50,"[6]; Table 2A, Example 1",2.7 ± 0.6 µM
same,IC50,"[7]; Table 2B, Example 1, read-out: IC50 HT-29",5.4 ± 1.1 µM
"CC(=O)O[C@H]1C(=O)[C@@]2(C)[C@H]([C@H](OC(=O)c3ccccc3)[C@]3(O)C[C@H](OC(=O)[C@H](O)[C@@H](NC(=O)c4ccccc4)c4ccccc4)C(C)=C1C3(C)C)[C@]1(OC(C)=O)CO[C@@H]1C[C@@H]2O [Taxol, reference compound]",IC50,"[1]; Homo sapiens, TCC-SUP",0.0043 ± 0.0006 µM
same,IC50,[2]; [14],0.0027 ± 0.0003 µM
same,IC50,"[3]; Homo sapiens, Table 2A, Taxol in nM, read-out: IC50 PC-3",6.3 ± 0.6 nM
same,IC50,[4]; [10],0.0019 ± 0.0003 µM
same,IC50,[5]; [18],0.0027 ± 0.0003 µM
same,IC50,[6]; Homo sapiens,0.0024 ± 0.0008 µM
same,IC50,[7]; [19],0.0066 ± 0.0006 µM
